In US10577363B2, “Substituted piperidine compounds” (EPIZYME, INC., priority 2014, dated 2020):

Each compound was assayed against SMYD3 (Homo sapiens (Human), UniProt Q9H7B4) (assay: SMYD3 biochemical assay (SPA, 3H-SAM methylation of MEKK2 protein substrate)). Conditions: read-out: SMYD3 Biochem IC50 (μM)*.
Description: S-adenosylmethionine (SAM), S-adenosylhomocysteine (SAH), Tris, Tween20, dimethylsulfoxide (DMSO), bovine skin gelatin (BSG), and Tris(2-carboxyethyl)phosphine hydrochloride solution (TCEP) were purchased from Sigma-Aldrich at the highest level of purity possible. ^3H-SAM was purchase from American Radiolabeled Chemicals with a specific activity of 80 Ci/mmol. 384-well opaque white OptiPlates and SPA beads (Perkin Elmer, catalog # RPNQ0013) were purchased from PerkinElmer.
N-terminally GST-tagged MEKK2 (MAP3K2) protein corresponding to reference sequence AAF63496.3 was purchased from Life Technologies (catalog # PV4010). This protein was expressed in High Five insect cells and purified to >85% purity. Protein identity was confirmed by MS/MS analysis after proteolytic digestion. The protein sequence used was:
Full-length human SMYD3 isoform 1 (BAB86333) was inserted into a modified pET21b plasmid containing a His6 tag and TEV and SUMO cleavage sites.
E. coli (BL21 codonplus RIL strain, Stratagene) were transformed with plasmid pEPZ553 by mixing competent cells and plasmid DNA and incubating on ice for 30 minutes followed by heat shock at 42° C. for 1 minute and cooling on ice for 2 minutes. Transformed cells were grown and selected on LB agar with 100 μg/mL ampicillin and 17 μg/mL chloramphenicol at 37° C. overnight. A single clone was used to inoculate 200 mL of LB medium with 100 μg/mL ampicillin and 17 μg/mL chloramphenicol and incubated at 37° C. on an orbital shaker at 180 rpm. Once in log growth, the culture was diluted 1:100 into 2 L of LB medium and grown until OD600 was about 0.3 after which the culture was incubated at 15° C. and 160 rpm. Once OD600 reached about 0.4, IPTG was added to a final concentration of 0.1 mM and the cells were grown overnight at 15° C. and 160 rpm. Cells were harvested by centrifugation at 8000 rpm, for 4 minutes at 4° C. and stored at −80° C. for purification.
The column was washed with Buffer B (Buffer A plus 20 mM imidazole) and His-tagged SMYD3 was eluted with Buffer C (Buffer A plus 300 mM imidazole). The His tag, TEV and SUMO cleavage sites were removed generating native SMYD3 by addition of ULP1 protein at a ratio of 1:200 (ULP1:SMYD3). Imidazole was removed by dialysis overnight in Buffer A. The dialyzed solution was applied to a second Nickel column and the native SMYD3 protein was collected from the column flow-through. The flow-through was dialyzed in Buffer D (25 mM Tris, 5% glycerol, 5 mM β-mercaptoethanol, 50 mM NaCl, pH7.8) and ULP1 was removed using a Q sepharose fast flow column.
General Procedure for SMYD3 Enzyme Assays on MEKK2 Protein Substrate
The assays were all performed in a buffer consisting of 25 mM Tris-Cl pH 8.0, 1 mM TCEP, 0.005% BSG, and 0.005% Tween 20, prepared on the day of use. […] DMSO (1 ul) was added to Columns 11, 12, 23, 24, rows A-H for the maximum signal control and 1 ul of SAH, a known product and inhibitor of SMYD3, was added to columns 11, 12, 23, 24, rows I-P for the minimum signal control. A cocktail (40 ul) containing the SMYD3 enzyme was added by Multidrop Combi (Thermo-Fisher). The compounds were allowed to incubate with SMYD3 for 30 min at room temperature, then a cocktail (10 ul) containing SAM and MEKK2 was added to initiate the reaction (final volume=51 ul). […] The assays were stopped by the addition of non-radiolabeled SAM (10 ul) to a final concentration of 100 uM, which dilutes the ^3H-SAM to a level where its incorporation into MEKK2 is no longer detectable. Radiolabeled MEKK2 was detected using a scintillation proximity assay (SPA). 10 uL of a 10 mg/mL solution of SPA beads in 0.5 M citric acid was added and the plates centrifuged at 600 rpm for 1 min to precipitate the radiolabeled MEKK2 onto the SPA beads. The plates were then read in a PerkinElmer TopCount plate reader to measure the quantity of ^3H-labeled MEKK2 as disintegrations per minute (dpm) or alternatively, referred to as counts per minute (cpm).

SMILES | IC50
COCCCS(=O)(=O)N1CC[C@@H](NC(=O)c2cc(C3CC3)on2)C[C@H]1C [compound 259, 5-cyclopropyl-N-((2R,4R)-1-((3-methoxypropyl)sulfonyl)-2-methylpiperidin-4-yl)isoxazole-3-carboxamide] | > 10 µM
NCCCC(=O)N1CCC(NC(=O)c2cc(C3CC3)on2)CC12CCCCC2 (centres unmarked) [compound 301, N-(1-(4-aminobutanoyl)-1-azaspiro[5.5]undecan-4-yl)-5-cyclopropylisoxazole-3-carboxamide] | 6.47 µM
C[C@H]1CC(NC(=O)c2cc(C3CC3)on2)CCN1C(=O)C1CNCC(O)C1 (stereo partly drawn) [compound 177, 5-cyclopropyl-N-((2S)-1-(5-hydroxypiperidine-3-carbonyl)-2-methylpiperidin-4-yl)isoxazole-3-carboxamide] | > 10 µM
C[C@@H]1CN(C(=O)[C@H]2CC[C@H](N)CC2)CCC1NC(=O)c1cc(C2CC2)on1 (stereo partly drawn) [compound 25, N-((3R)-1-((1r,4R)-4-aminocyclohexane-1-carbonyl)-3-methylpiperidin-4-yl)-5-cyclopropylisoxazole-3-carboxamide] | 0.299 µM
N[C@H]1CC[C@@H](C(=O)N2[C@@H]3CC[C@H]2C[C@H](NC(=O)c2cc(C4CC4)on2)C3)CC1 [compound 486, N-((1R,3S,5S)-8-((1s,4S)-4-aminocyclohexane-1-carbonyl)-8-azabicyclo[3.2.1]octan-3-yl)-5-cyclopropylisoxazole-3-carboxamide] | > 10 µM
C[C@H]1C[C@H](NC(=O)c2cc(C3CC3)on2)CCN1S(=O)(=O)CC(F)(F)F [compound 246, 5-cyclopropyl-N-((2S,4R)-2-methyl-1-((2,2,2-trifluoroethyl)sulfonyl)piperidin-4-yl)isoxazole-3-carboxamide] | > 10 µM
C[C@@H]1CN(C(=O)[C@H]2CC[C@H](N)CC2)CC[C@H]1NC(=O)c1cc(C2CC2)on1 [compound 146, N-((3R,4R)-1-((1r,4R)-4-aminocyclohexane-1-carbonyl)-3-methylpiperidin-4-yl)-5-cyclopropylisoxazole-3-carboxamide] | 2.28 µM
C[C@H]1C[C@@H](NC(=O)c2cc(C3CC3)on2)CCN1S(=O)(=O)N1CCCC1 [compound 277, 5-cyclopropyl-N-((2S,4S)-2-methyl-1-(pyrrolidin-1-ylsulfonyl)piperidin-4-yl)isoxazole-3-carboxamide] | 0.654 µM
C[C@@H]1C[C@@H](NC(=O)c2cc(C3CC3)on2)CCN1S(=O)(=O)N1CCCC1 [compound 242, 5-cyclopropyl-N-((2R,4S)-2-methyl-1-(pyrrolidin-1-ylsulfonyl)piperidin-4-yl)isoxazole-3-carboxamide] | > 10 µM
N[C@H]1CC[C@H](C(=O)N2CC[C@H](NC(=O)c3cc(C4CC4)on3)[C@@H](CO)C2)CC1 [compound 421, N-((3S,4S)-1-((1r,4S)-4-aminocyclohexane-1-carbonyl)-3-(hydroxymethyl)piperidin-4-yl)-5-cyclopropylisoxazole-3-carboxamide] | 2.51 µM
NCCCC(=O)N1C2CCC1CC(NC(=O)c1cc(C3CC3)on1)C2 (centres unmarked) [compound 199, N-(8-(4-aminobutanoyl)-8-azabicyclo[3.2.1]octan-3-yl)-5-cyclopropylisoxazole-3-carboxamide] | 0.678 µM
N[C@H]1CC[C@@H](C(=O)N2[C@@H]3CC[C@H]2C[C@@H](NC(=O)c2cc(C4CC4)on2)C3)CC1 [compound 429, N-((1R,3R,5S)-8-((1s,4S)-4-aminocyclohexane-1-carbonyl)-8-azabicyclo[3.2.1]octan-3-yl)-5-cyclopropylisoxazole-3-carboxamide] | 0.351 µM
CCCS(=O)(=O)N1CC[C@H](NC(=O)c2cc(C3CC3)on2)C[C@@H]1C [compound 229, 5-cyclopropyl-N-((2S,4S)-2-methyl-1-(propylsulfonyl)piperidin-4-yl)isoxazole-3-carboxamide] | 0.863 µM
CC[C@H]1CN(C(=O)CC2CCNCC2)CC[C@@H]1NC(=O)c1cc(C2CC2)on1 [compound 76, 5-cyclopropyl-N-((3S,4S)-3-ethyl-1-(2-(piperidin-4-yl)acetyl)piperidin-4-yl)isoxazole-3-carboxamide] | 0.541 µM

Further lines, results first:

IC50 | SMILES
3.11 µM | C[C@@H]1C[C@H](NC(=O)c2cc(C3CC3)on2)CCN1C(=O)CCCN [compound 171, N-((2R,4R)-1-(4-aminobutanoyl)-2-methylpiperidin-4-yl)-5-cyclopropylisoxazole-3-carboxamide]
0.947 µM | NCC(=O)N[C@@H](Cc1c[nH]c2ccccc12)C(=O)N1CCC(NC(=O)c2cc(C3CC3)on2)CC1 [compound 4, 5-cyclopropyl-N-(1-(glycyl-L-tryptophyl)piperidin-4-yl)isoxazole-3-carboxamide]
1.2 µM | CN[C@@H](Cc1cn(C)c2ccccc12)C(=O)N1CCC(NC(=O)c2cc(C3CC3)on2)CC1 [compound 8, 5-cyclopropyl-N-(1-(Na,1-dimethyl-L-tryptophyl)piperidin-4-yl)isoxazole-3-carboxamide]
> 10 µM | C[C@H]1C[C@H](NC(=O)c2cc(C3CC3)on2)CCN1S(=O)(=O)CCc1ccccc1 [compound 326, 5-cyclopropyl-N-((2S,4R)-2-methyl-1-(phenethylsulfonyl)piperidin-4-yl)isoxazole-3-carboxamide]
0.416 µM | C[C@@H]1C[C@H](NC(=O)c2cc(C3CC3)on2)CCN1C(=O)CC(C)(C)CN [compound 312, N-((2R,4R)-1-(4-amino-3,3-dimethylbutanoyl)-2-methylpiperidin-4-yl)-5-cyclopropylisoxazole-3-carboxamide]
4.85 µM | COC(=O)CCS(=O)(=O)N1CC[C@H](NC(=O)c2cc(C3CC3)on2)C[C@@H]1C [compound 280, methyl 3-(((2S,4S)-4-(5-cyclopropylisoxazole-3-carboxamido)-2-methylpiperidin-1-yl)sulfonyl)propanoate]
0.518 µM | Cc1ccc(C[C@H](CN)C(=O)N2CCC(NC(=O)c3cc(C4CC4)on3)CC2)cc1O [compound 38, (R)-N-(1-(3-amino-2-(3-hydroxy-4-methylbenzyl)propanoyl)piperidin-4-yl)-5-cyclopropylisoxazole-3-carboxamide]
0.278 µM | C[C@@H]1C[C@@H](NC(=O)c2cc(C3CC3)on2)CCN1S(=O)(=O)c1cccc(C#N)c1 [compound 355, N-((2R,4S)-1-((3-cyanophenyl)sulfonyl)-2-methylpiperidin-4-yl)-5-cyclopropylisoxazole-3-carboxamide]
2.32 µM | C[C@H]1CN(C(=O)[C@@H](N)Cc2ccc(O)cc2)CCC1NC(=O)c1cc(C2CC2)on1 (stereo partly drawn) [compound 67, N-((3S)-1-(L-tyrosyl)-3-methylpiperidin-4-yl)-5-cyclopropylisoxazole-3-carboxamide]
8.55 µM | O=C(NC1CCN(C(=O)C2CCNCC2)CC1)c1cc(C2CC2)on1 [compound 15, 5-cyclopropyl-N-(1-(piperidine-4-carbonyl)piperidin-4-yl)isoxazole-3-carboxamide]
0.928 µM | C[C@H](C(=O)N1CC[C@H](NC(=O)c2cc(C3CC3)on2)C[C@H]1C)C1CCNCC1 [compound 307, 5-cyclopropyl-N-((2R,4S)-2-methyl-1-((S)-2-(piperidin-4-yl)propanoyl)piperidin-4-yl)isoxazole-3-carboxamide]
> 10 µM | C[C@H]1C[C@H](NC(=O)c2cc(C3CC3)on2)CCN1S(=O)(=O)C1CC1 [compound 247, 5-cyclopropyl-N-((2S,4R)-1-(cyclopropylsulfonyl)-2-methylpiperidin-4-yl)isoxazole-3-carboxamide]
